Some test systems named below: SNB-19 CNS; BT-549 breast; NCI/ADR-RES ovarian; SK-MEL-5 melanoma; HS 578T breast; OVCAR-4 ovarian.
Holding throughout (assay): inhibition of tumour cell growth, NCI panel, 48 h

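Assay format: 96-well plates, 48-hour exposure. GI50: concentration for 50% inhibition of growth. At the TGI there is no net growth.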

For `CC1(CC(=O)O)OC2CCCCCC2O1` (stereo not drawn) (tested in a mixture with another compound), the TGI with SNB-19 CNS, with BT-549 breast, in the assay on NCI/ADR-RES ovarian, in the assay on SK-MEL-5 melanoma, in the assay with HS 578T breast and in the assay with OVCAR-4 ovarian was over 100 µM each time.
On to `CCOC(=O)c1[nH]c2c(c1C)-c1[nH]c(=O)c(S(=O)(=O)c3ccccc3)cc1SC2`, for which the GI50 is 81.1 µM in the assay on SNB-19 CNS; 36.5 µM with BT-549 breast; 52.9 µM with NCI/ADR-RES ovarian; 37.4 µM in the assay with SK-MEL-5 melanoma; 24.7 µM with HS 578T breast; 28.8 µM in the assay on OVCAR-4 ovarian. The TGI is over 100 µM in the assay on SNB-19 CNS; over 100 µM with BT-549 breast; over 100 µM in the assay on NCI/ADR-RES ovarian; over 100 µM in the assay on SK-MEL-5 melanoma; 94 µM in the assay with HS 578T breast; 86.5 µM with OVCAR-4 ovarian.
Regarding `CC[C@@]1(OC(=O)CN)C(=O)OCc2c1cc1n(c2=O)Cc2cc3cc(N)ccc3nc2-1`, the GI50 is under 0.01 µM with SNB-19 CNS; 1.3 µM in the assay on BT-549 breast; under 0.0103 µM in the assay on NCI/ADR-RES ovarian; 0.0181 µM in the assay with SK-MEL-5 melanoma; 1.97 µM with HS 578T breast; 0.363 µM with OVCAR-4 ovarian. In addition, the TGI was over 100 µM in the assay on SNB-19 CNS; over 100 µM with BT-549 breast; 0.125 µM in the assay with NCI/ADR-RES ovarian; 0.141 µM in the assay with SK-MEL-5 melanoma; over 100 µM in the assay on HS 578T breast; 2.7 µM with OVCAR-4 ovarian.
Turning to `CC(C)(C)n1cc(-c2ccnc(NCCNS(=O)(=O)c3ccc(Br)cc3)c2)c(-c2cccc(O)c2)n1`, the GI50 was 2.29 µM in the assay on SNB-19 CNS; 1.64 µM with BT-549 breast; 2.13 µM with NCI/ADR-RES ovarian; 1.36 µM with SK-MEL-5 melanoma; 1.55 µM in the assay with OVCAR-4 ovarian. In addition, the TGI in the assay on SNB-19 CNS stood at 5.67 µM; in the assay on BT-549 breast it was 3.2 µM; in the assay on NCI/ADR-RES ovarian, 4.99 µM; in the assay with SK-MEL-5 melanoma, 2.67 µM; in the assay with OVCAR-4 ovarian, 3.59 µM.
Consider `Oc1cccc(-c2nc3ccccc3s2)c1`, for which the TGI in the assay with SNB-19 CNS was over 100 µM; in the assay on BT-549 breast it was over 100 µM; with NCI/ADR-RES ovarian, 68.8 µM; in the assay on HS 578T breast, 44.4 µM; in the assay with OVCAR-4 ovarian it was over 100 µM.
As to `COc1c(O)c(OC)c(C(=O)/C=C/c2ccccc2)c(O)c1OC`, the TGI with SNB-19 CNS is over 100 µM; in the assay on NCI/ADR-RES ovarian, 42.6 µM; in the assay on SK-MEL-5 melanoma, 46 µM; in the assay with HS 578T breast, over 100 µM; in the assay with OVCAR-4 ovarian it was over 100 µM.
Consider `Cc1nnc([S-])s1.[Au+].c1ccc([PH+](c2ccccc2)c2ccccc2)cc1`, for which the GI50 in the assay with SNB-19 CNS was 1.6 µM; with BT-549 breast it was 1.47 µM; in the assay with SK-MEL-5 melanoma, 1.51 µM. Further, the TGI in the assay with SNB-19 CNS came out at 2.98 µM; in the assay with BT-549 breast it was 2.88 µM; with SK-MEL-5 melanoma, 2.97 µM.
Turning to `O=C(Oc1c(I)ccccc1=O)c1ccc([N+](=O)[O-])cc1`, the TGI with SNB-19 CNS was 46.5 µM; in the assay with BT-549 breast, 41.8 µM; in the assay with NCI/ADR-RES ovarian, over 100 µM; in the assay on SK-MEL-5 melanoma, 13.6 µM; in the assay with HS 578T breast, 68.2 µM.
On to `CCN(CC)CCOc1ccc(/C=C2\C[C@H]3[C@@H]4CC=C5C[C@@H](OC(C)=O)CC[C@]5(C)[C@H]4CC[C@]3(C)[C@H]2OC(C)=O)cc1OC`, for which the GI50 with SNB-19 CNS was 11.8 µM; with NCI/ADR-RES ovarian it was 11.1 µM; in the assay with SK-MEL-5 melanoma it was 5.39 µM; in the assay with HS 578T breast, 10.6 µM. In addition, the TGI with SNB-19 CNS was found to be 30.1 µM; in the assay with NCI/ADR-RES ovarian it was 22.3 µM; with SK-MEL-5 melanoma it was 17 µM; in the assay with HS 578T breast, 22.4 µM.
`COC(=O)c1cc(Nc2ccc(O)c3c2C(=O)c2c([N+](=O)[O-])ccc(O)c2C3=O)cc(C(=O)OC)c1`: the GI50 in the assay with SNB-19 CNS is 22.2 µM; with BT-549 breast, 13.7 µM; in the assay on NCI/ADR-RES ovarian it was 26.8 µM; in the assay with HS 578T breast, 3.77 µM; with OVCAR-4 ovarian, 3.99 µM. Moreover, the TGI in the assay on SNB-19 CNS, in the assay on BT-549 breast, in the assay with NCI/ADR-RES ovarian, in the assay with HS 578T breast and with OVCAR-4 ovarian was over 100 µM each time.
Consider `O=C1c2cccnc2C(=O)c2c1c(C(=O)OCCCN1CCOCC1)c1ccccn21`, for which the GI50 was under 0.01 µM with SNB-19 CNS; 0.0375 µM in the assay on BT-549 breast; under 0.01 µM in the assay with NCI/ADR-RES ovarian; under 0.0114 µM in the assay on SK-MEL-5 melanoma; 0.94 µM with OVCAR-4 ovarian. The TGI in the assay with SNB-19 CNS is 4.13 µM; in the assay with BT-549 breast, 1.82 µM; with NCI/ADR-RES ovarian, 2.21 µM; in the assay on SK-MEL-5 melanoma, 0.0951 µM; in the assay with OVCAR-4 ovarian, 3.99 µM.
As to `O=C1c2ccccc2-c2cc3ccccc3c(=O)n21`, the TGI in the assay on SNB-19 CNS, in the assay with NCI/ADR-RES ovarian, in the assay on SK-MEL-5 melanoma and in the assay with HS 578T breast was over 100 µM throughout.

These data come from PubChem BioAssay (NCI).
